Source: PMC9576757, “A small molecule inhibitor of the UBE2F-CRL5 axis induces apoptosis and radiosensitization in lung cancer” (Signal Transduction and Targeted Therapy, 2022)
Numbering of substitutions follows the chain as printed.

What was measured:
[1] = target: T1, UBE2F (Homo sapiens, UniProt Q969M7); test: differential scanning fluorimetry, SYPRO orange; assay type: binding; conditions: tested as mesylate salt; 2 μM UBE2F, 1 °C/min from 25 to 95 °C; maximum of a dose series (printed 'up to')
T1 construct: recombinant, pET-28a with His-SUMO tag cleaved by Ulp1 (un-tagged), expressed in E. coli Rosetta 2(DE3) pLysS
T1 sequence (Q969M7 1-185): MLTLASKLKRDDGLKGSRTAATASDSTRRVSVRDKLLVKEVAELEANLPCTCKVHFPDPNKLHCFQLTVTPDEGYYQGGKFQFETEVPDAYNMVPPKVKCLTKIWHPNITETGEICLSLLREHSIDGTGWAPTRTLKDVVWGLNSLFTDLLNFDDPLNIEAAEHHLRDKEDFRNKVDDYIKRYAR

[2] = target: T2, UBE2F (Homo sapiens, UniProt Q969M7, K97A/K99A/R121A); test: thermal shift assay with Western blotting; assay type: binding; conditions: V98 pocket mutant
T2 construct: recombinant, pET-28a with His-SUMO tag cleaved by Ulp1 (un-tagged), expressed in E. coli Rosetta 2(DE3) pLysS
T2 sequence (Q969M7 1-185 K97A/K99A/R121A): T1 sequence (Q969M7 1-185) with K97A, K99A, R121A

[3] = target: T1, UBE2F; test: E2 NEDD8 thioester assay, iFluor 680-NEDD8, SDS-PAGE fluorescence scan; assay type: biochemical
[4] = target: T3, UBE2F (Homo sapiens, UniProt Q969M7, F153A/D154A/H165A); test: thermal shift assay with Western blotting; assay type: binding; conditions: N152 pocket mutant
T3 construct: recombinant, pET-28a with His-SUMO tag cleaved by Ulp1 (un-tagged), expressed in E. coli Rosetta 2(DE3) pLysS
T3 sequence (Q969M7 1-185 F153A/D154A/H165A): T1 sequence (Q969M7 1-185) with F153A, D154A, H165A

dTm [1]: ~ 4 °C
IC50 [3]: ~49 µM
SMILES: Cc1ccc(C(=O)N2CCN(c3ccc(NC(=O)/C=C/c4c[nH]c5ncccc45)cc3)CC2)cc1 [iV26-9-10-4, HA-9104]
thermal stabilization [2]: V98 mutant was a little more thermo-stable and less stabilized by HA-9104
thermal stabilization [4]: N152 mutant was very thermo-stable and largely resistant to HA-9104-induced stabilization
